This is an account of results in patent publication US20070123514A1, “Methods of modulating neurotrophin-mediated activity” (PainCeptor Pharma Corporation, priority 2005, published 2007).

One assay has as its system PC12 (TrkA & p75). Nature of the assay: 125I-NGF binding displacement in PC12 cells. The conditions noted are these: PC12 cells expressing TrkA and p75; result in words. The arrangement: species or system rat. As for the experimental part: The method for acquiring the PC12 data described in Table 1 is described herein in Example 1. Each experiment was done at least once with an n value of 4 for each data point. (n/a=not acquired)
(§1) All cells were incubated at 37° C. in 5% CO2. PC12 cells were maintained in RPMI-1640 medium supplemented with 10% fetal bovine serum (FBS). A875 human melanoma cells were maintained in DMEM with 10% FBS. HEK 293 cells were stably transfected with human TrkA plasmid (see below) and maintained in DMEM with 10% FBS and G418 (600 μg/mL) for selection.
NGF binding was evaluated using methods familiar to those who are skilled in the art. Briefly, cells expressing one or both NGF receptors (PC12: TrkA+p75; A875: p75 alone; HEK_trkA: TrkA alone) were harvested by replacing the medium with calcium-magnesium free balanced salt (Grey's) solution and incubating at 37° C. for 15 min. For NGF binding, cells were resuspended at a concentration of 2×10^6 cells/mL in HEPES-Krebs-Ringer (HKR) buffer (10 mM HEPES; 125 mM NaCl; 4.8 mM KCl; 1.3 mM CaCl2; 1.2 mM MgSO4; 1.2 mM KH2PO4; 1 mg/ml BSA; 1 mg/ml glucose; pH 7.4) and exposed to ^125I-NGF (˜0.1 nM) in the presence or absence of varying concentrations of the compound. Non-specific binding was determined for reference by incubating ^125I-NGF with an excess of non-radioactive NGF in the abence of compound. Following a two-hour incubation period at 4° C., ^125I-NGF bound to the cells was quantified in a gamma radiation counter following separation from unbound NGF by filtration or centrifugation through glycerol (10% in HKR). Inhibition of binding was calculated as a percent of the specific binding (calculated as the differential between ^125I-NGF binding in the absence and presence of an excess of non-radioactive NGF without compound). Dose-response inhibition curves were typically generated with seven concentrations of a given compound, with three replicates for each concentration. For most compounds, multiple dose-response curves were generated.
The IC50 data shown in Table 1 were acquired using the procedure described herein using PC12 cells.
Consider `O=C1c2cccc3cc([N+](=O)[O-])cc(c23)C(=O)N1c1ccc(S(=O)(=O)O)cc1` [Compound 71, 4-(5-Nitro-1,3-dioxo-1H,3H-benzo[de]isoquinolin-2-yl)-benzenesulfonic acid], for which the “blocking of NGF binding (dose-response curve)” value is given as “effectively block NGF binding”.
On the same count and under the same terms, with `CC(=O)Nc1cc2c3c(cc(NC(C)=O)cc3c1)C(=O)N(c1cccc(C(=O)O)c1)C2=O` [Compound 94, 3-(5,8-Bis-acetylamino-1,3-dioxo-1H,3H-benzo[de]isoquinolin-2-yl)-benzoic acid] the entry was “effectively blocks NGF binding”; with `O=C(O)c1ccc(Cl)c(N2C(=O)c3cc([N+](=O)[O-])cc4cc([N+](=O)[O-])cc(c34)C2=O)c1` [Compound 7, 4-Chloro-3-(5,8-dinitro-1,3-dioxo-1H,3H-benzol[de]isoquinolin-2-yl)-benzoic acid], “effectively blocks NGF binding”.

Still in this assay, the particulars now being: PC12 cells, compound concentration 25 μM.
On to `CCOC(=O)c1cccc(N2C(=O)c3cccc4cccc2c34)c1` [Compound 105, 3-(2-Oxo-2H-benzo[cd]indol-1-yl)-benzoic acid ethyl ester], for which the “PC12 (TrkA & p75) Single point (% max binding) Mean” value (“PC12 … (% max binding) Mean” below) is “* (* > 50)”.
As for `CCOC(=O)c1cc(N2C(=O)c3cccc4c([N+](=O)[O-])ccc2c34)ccc1Cl` [Compound 108, 2-Chloro-5-(6-nitro-2-oxo-2H-benzo[cd]indol-1-yl)-benzoic acid ethyl ester], the “PC12 … (% max binding) Mean” value is “* (* > 50)”.
On the same count and under the same terms, with `O=C(O)c1ccc(Cl)c(N2C(=O)c3cccc4c(C(=O)O)ccc(c34)C2=O)c1` [Compound 99, 2-(5-Carboxy-2-chloro-phenyl)-1,3-dioxo-2,3-dihydro-1H-benzo[de]isoquinoline-6-carboxylic acid] the entry was “* (* > 50)”.
The same measure, in the same setting: with `CCOC(=O)c1cccc(N2C(=O)c3cccc4c([N+](=O)[O-])ccc2c34)c1` [Compound 106, 3-(6-Nitro-2-oxo-2H-benzo[cd]indol-1-yl)-benzoic acid ethyl ester] the entry was “* (* > 50)”; with `CC(=O)Nc1ccc(C(=O)O)cc1N1C(=O)c2cccc3cc([N+](=O)[O-])cc(c23)C1=O` [Compound 110, 4-Acetylamino-3-(5-nitro-1,3-dioxo-1H,3H-benzo[de]isoquinolin-2-yl)-benzoic acid], “** (30 > ** > 50)”.
`O=C(O)c1ccc(Cl)c(N2C(=O)c3cccc4c(Cl)ccc(c34)C2=O)c1` [Compound 111, 4-Chloro-3-(6-chioro-1,3-dioxo-1H,3H-benzo[de]isoquinolin-2-yl)-benzoic acid]: the “PC12 … (% max binding) Mean” value is “** (30 > ** > 50)”.
On the same count and under the same terms, with `O=C(O)c1ccc(Cl)c(N2C(=O)c3cccc4c(C(=O)c5ccccc5)ccc(c34)C2=O)c1` [Compound 98, 3-(6-Benzoyl-1,3-dioxo-1H,3H-benzo[de]isoquinolin-2-yl)-4-chloro-benzoic acid] the entry was “*** (0 > *** > 30)”; with `O=C(O)c1cccc(N2C(=O)c3cccc4cccc2c34)c1` [Compound 107, 3-(2-Oxo-2H-benzo[cd]indol-1-yl)-benzoic acid], “** (30 > ** > 50)”.

The assay is the same for the next values; noted with them: PC12 cells, compound concentration 50 μM.
As for `O=C(O)c1cc(Cl)cc(N2C(=O)c3cccc4cc([N+](=O)[O-])cc(c34)C2=O)c1Cl` [Compound 51, 2,5-Dichloro-3-(5-nitro-1,3-dioxo-1H,3H-benzo[de]isoquinolin-2-yl)-benzoic acid], the “PC12 … (% max binding) Mean” value was “* (* > 50)”.
Still for that read-out and setting: with `Nc1cc2c3c(cc(Br)cc3c1)C(=O)N(c1cc(C(=O)O)ccc1Cl)C2=O` [Compound 56, 3-(5-Amino-8-bromo-1,3-dioxo-1H,3H-benzo[de]isoquinolin-2-yl)-4-chloro-benzoic acid] the entry was “* (* > 50)”; with `O=C(O)c1ccc(Cl)c(N2C(=O)c3cc(Br)cc4cc([N+](=O)[O-])cc(c34)C2=O)c1` [Compound 53, 3-(5-Bromo-8-nitro-1,3-dioxo-1H,3H-benzo[de]isoquinolin-2-yl)-4-chloro-benzoic acid], “* (* > 50)”; with `CC(=O)Nc1cc2c3c(cc(Br)cc3c1)C(=O)N(c1cc(C(=O)O)ccc1Cl)C2=O` [Compound 57, 3-(5-Acetylamino-8-bromo-1,3-dioxo-1H,3H-benzo[de]isoquinolin-2-yl)-4-chloro-benzoic acid], “** (30 > ** > 50)”.
On the same count and under the same terms, then `Nc1cc2c3c(cc(N)cc3c1)C(=O)N(c1ccc(S(=O)(=O)O)cc1)C2=O` [Compound 118, 4-(5,8-Diamino-1,3-dioxo-1H,3H-benzo[de]isoquinolin-2-yl)-benzenesulfonic acid], with “** (30 > ** > 50)”.

The same assay, now with this note: PC12 cells, concentration cell printed as '═'.
`CC(=O)Nc1cc2c3c(cc(NC(C)=O)cc3c1)C(=O)N(c1ccc(S(=O)(=O)O)cc1)C2=O` [Compound 119, 4-(5,8-Bis-acetylamino-1,3-dioxo-1H,3H-benzol[de]isoquinolin-2-yl)-benzenesulfonic acid]: the “PC12 … (% max binding) Mean” value is recorded as “** (30 > ** > 50)”.

In a further assay the test system is human TrkA (HEK_trkA: TrkA alone). Nature of the assay: 125I-NGF binding displacement in HEK_trkA cells. The conditions noted are these: result in words. As for the experimental part:
as §1
Expression of human TrkA in HEK cells was achieved by transfecting the cells with the TrkA expression vector using Lipofectamine (Invitrogen) reagent. HEK cells were plated in 100 mm Petri dishes at a concentration of 10^6 cells per dish. The next day, a solution of DNA diluted in 1 mL OptiMEM (Invitrogen) per dish was prepared and incubated for 15 min at room temperature. […]
NGF binding was evaluated using methods familiar to those who are skilled in the art. […] Non-specific binding was determined for reference by incubating ^125I-NGF with an excess of non-radioactive NGF in the abence of compound. Following a two-hour incubation period at 4° C., ^125I-NGF bound to the cells was quantified in a gamma radiation counter following separation from unbound NGF by filtration or centrifugation through glycerol (10% in HKR). Inhibition of binding was calculated as a percent of the specific binding (calculated as the differential between ^125I-NGF binding in the absence and presence of an excess of non-radioactive NGF without compound). […]
`CC(=O)Nc1cc2c3c(cc(NC(C)=O)cc3c1)C(=O)N(c1cccc(C(=O)O)c1)C2=O` [Compound 94, 3-(5,8-Bis-acetylamino-1,3-dioxo-1H,3H-benzo[de]isoquinolin-2-yl)-benzoic acid]: the “blocking of NGF binding to TrkA (dose-response curve)” value was “effectively blocks NGF binding to TrkA”.
